According to patent publication US7105548B2, “Heteroaryl substituted triazole modulators of metabotropic glutamate receptor-5” (Merck & Co., Inc., priority 2001, dated 2006):
Structures can show the parent of a compound that is named as a salt.

| Structure (SMILES) | melting point [°C] |
| --- | --- |
| N#Cc1cccc(-n2cnc(-c3ccccn3)n2)c1 [Example 2, 3-(3-pyridin-2-yl-1H-1,2,4-triazol-1-yl)benzonitrile] | 194 to 195 |
| Clc1cccc(-n2cnc(-c3ccccn3)n2)c1 (as salt: hydrochloride) [Example 1, 2-[1-(3-chlorophenyl)-1H-1,2,4-triazol-3-yl]pyridine] | 221 to 223 |
| N#Cc1cccc(-c2ncn(-c3ccccn3)n2)c1 (as salt: hydrochloride) [Example 3, 3-(1-pyridin-2-yl-1H-1,2,4-triazol-3-yl)benzonitrile] | 185 to 188 |
| Clc1cccc(-c2ncn(-c3ccccn3)n2)c1 (as salt: hydrochloride) [Example 4, 2-[3-(3-chlorophenyl)-1H-1,2,4-triazol-1-yl]pyridine] | 125 to 128 |
